# Laboratory results: ChEMBL document CHEMBL1201862, “PubChem BioAssay data set” (2004)
#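 Five compound concentrations were applied to cells in 96-well plates for 48 hours; endpoints were derived by simple linear interpolation of the resulting dose-response curve. GI50: concentration for 50% inhibition of growth.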 Activity calls are given as the source filed them. No stated cut-off is given here; in the data, active = GI50 up to about 1.1 µM and inactive = higher.
# Experiments:
# Assay in all cases: NCI anticancer screen, dose series, 48 h
# SK-MEL-2 = test system: SK-MEL-2
# ACHN = test system: ACHN
# EKVX = test system: EKVX
# SR = test system: SR
# UO-31 = test system: UO-31
# MDA-MB-435 = test system: MDA-MB-435
# OVCAR-5 = test system: OVCAR-5
# SN12C = test system: SN12C
# HT-29 = test system: HT-29
# NCI/ADR-RES = test system: NCI/ADR-RES
# HOP-92 = test system: HOP-92
# SK-OV-3 = test system: SK-OV-3
# IGROV-1 = test system: IGROV-1
# OVCAR-3 = test system: OVCAR-3
# SF-268 = test system: SF-268
# PC-3 = test system: PC-3
# UACC-257 = test system: UACC-257
# M14 = test system: M14
# RPMI-8226 = test system: RPMI-8226
# UACC-62 = test system: UACC-62
Structure (SMILES),GI50 (SK-MEL-2),GI50 (ACHN),GI50 (EKVX),GI50 (SR),GI50 (UO-31),GI50 (MDA-MB-435),GI50 (OVCAR-5),GI50 (SN12C),GI50 (HT-29),GI50 (NCI/ADR-RES),GI50 (HOP-92),GI50 (SK-OV-3),GI50 (IGROV-1),GI50 (OVCAR-3),GI50 (SF-268),GI50 (PC-3),GI50 (UACC-257),GI50 (M14),GI50 (RPMI-8226),GI50 (UACC-62)
O=[N+]([O-])c1cc(C2ON=C(c3ccccc3)N2C23CC4CC(CC(C4)C2)C3)ccc1Cl (stereo not given),> 100 µM (inactive),> 100 µM (inactive),> 100 µM (inactive),> 100 µM (inactive),> 100 µM (inactive),> 100 µM (inactive),> 100 µM (inactive),> 100 µM (inactive),> 100 µM (inactive),> 100 µM (inactive),> 100 µM (inactive),> 100 µM (inactive),> 100 µM (inactive),> 100 µM (inactive),> 100 µM (inactive),> 100 µM (inactive),> 100 µM (inactive),> 100 µM (inactive),> 100 µM (inactive),–
CC(=O)/C(=C\c1ccc(Cl)c(Cl)c1)C(=O)C(C)CN(C)C (stereo not given),–,5.24 µM (inactive),14.2 µM (inactive),1.82 µM (inactive),4.01 µM (inactive),3.24 µM (inactive),10.8 µM (inactive),6.73 µM (inactive),5.12 µM (inactive),13.1 µM (inactive),2.26 µM (inactive),16.5 µM (inactive),2.07 µM (inactive),4.1 µM (inactive),3.62 µM (inactive),4.62 µM (inactive),10.4 µM (inactive),9.75 µM (inactive),1.32 µM (inactive),–
CCC1(CC)C(=O)OC(=O)C1(CC)CC,> 100 µM (inactive),> 100 µM (inactive),> 100 µM (inactive),> 100 µM (inactive),> 100 µM (inactive),> 100 µM (inactive),–,–,> 100 µM (inactive),> 100 µM (inactive),–,> 100 µM (inactive),> 100 µM (inactive),> 100 µM (inactive),> 100 µM (inactive),> 100 µM (inactive),–,> 100 µM (inactive),> 100 µM (inactive),> 100 µM (inactive)
OCc1ccc2c(c1)CC1(Cc3ccc(/C=N/O)cc3C1)C2 (stereo not given),7.26 µM (inactive),7.08 µM (inactive),6.73 µM (inactive),–,7.08 µM (inactive),0.445 µM (active),23.7 µM (inactive),2.61 µM (inactive),1.89 µM (inactive),3.32 µM (inactive),7.74 µM (inactive),6.05 µM (inactive),2.84 µM (inactive),2.74 µM (inactive),13.7 µM (inactive),3.74 µM (inactive),2.19 µM (inactive),1.99 µM (inactive),2.25 µM (inactive),3.24 µM (inactive)
c1ccc(/N=C2\c3ccccc3CN2c2ccccc2)cc1,> 100 µM (inactive),> 100 µM (inactive),> 100 µM (inactive),> 100 µM (inactive),> 100 µM (inactive),> 100 µM (inactive),–,> 100 µM (inactive),> 100 µM (inactive),> 100 µM (inactive),46.5 µM (inactive),> 100 µM (inactive),> 100 µM (inactive),> 100 µM (inactive),> 100 µM (inactive),> 100 µM (inactive),> 100 µM (inactive),> 100 µM (inactive),> 100 µM (inactive),> 100 µM (inactive)
OC(C#CCN1CCCC1)(c1ccccc1)c1ccccc1Cl (stereo not given),26.6 µM (inactive),23.9 µM (inactive),48.5 µM (inactive),36.3 µM (inactive),24.7 µM (inactive),23.2 µM (inactive),> 100 µM (inactive),43.9 µM (inactive),16.5 µM (inactive),23.3 µM (inactive),–,61 µM (inactive),14.8 µM (inactive),82.8 µM (inactive),44.2 µM (inactive),27.8 µM (inactive),20.7 µM (inactive),–,39.2 µM (inactive),27.2 µM (inactive)
Cc1cc2c(cc1C)C(=O)C1(C2)Cc2c(C)ccc(C)c2C1=O (stereo not given),> 100 µM (inactive),> 100 µM (inactive),> 100 µM (inactive),> 100 µM (inactive),> 100 µM (inactive),> 100 µM (inactive),> 100 µM (inactive),> 100 µM (inactive),–,> 100 µM (inactive),> 100 µM (inactive),–,98.4 µM (inactive),> 100 µM (inactive),> 100 µM (inactive),> 100 µM (inactive),> 100 µM (inactive),> 100 µM (inactive),> 100 µM (inactive),> 100 µM (inactive)
COC(=O)c1c2c(cc3c1CC1(Cc4cc5c(c(C(C)=O)c4C1)CCCC5)C3)CCCC2 (stereo not given),21.4 µM (inactive),44.1 µM (inactive),> 100 µM (inactive),3.02 µM (inactive),–,92.5 µM (inactive),> 100 µM (inactive),> 100 µM (inactive),48.8 µM (inactive),> 100 µM (inactive),> 100 µM (inactive),> 100 µM (inactive),> 100 µM (inactive),> 100 µM (inactive),–,24.6 µM (inactive),56 µM (inactive),> 100 µM (inactive),29.6 µM (inactive),> 100 µM (inactive)
Cc1ccc(/C(=C\C(=O)C(=O)NC23CC4CC(CC(C4)C2)C3)Sc2ccccc2)cc1,> 10 µM (inactive),> 10 µM (inactive),> 10 µM (inactive),> 10 µM (inactive),> 10 µM (inactive),> 10 µM (inactive),> 10 µM (inactive),> 10 µM (inactive),> 10 µM (inactive),> 10 µM (inactive),–,> 10 µM (inactive),> 10 µM (inactive),> 10 µM (inactive),> 10 µM (inactive),4.31 µM (inactive),> 10 µM (inactive),> 10 µM (inactive),9.02 µM (inactive),–
COC(=O)c1c2c(cc3c1CC1(Cc4cc5c(c(C=O)c4C1)CCC5)C3)CCC2 (stereo not given),23.8 µM (inactive),32.9 µM (inactive),62.1 µM (inactive),19.3 µM (inactive),25.1 µM (inactive),17.7 µM (inactive),67.8 µM (inactive),–,21.4 µM (inactive),40.5 µM (inactive),19.3 µM (inactive),42.5 µM (inactive),28.4 µM (inactive),23.3 µM (inactive),50.7 µM (inactive),30.8 µM (inactive),21.2 µM (inactive),22.2 µM (inactive),55.1 µM (inactive),–
CNC(=O)CCC(NC(=O)OC(C)(C)C)C(=O)NC(Cc1ccc(NC(=O)CCCCC(C)=O)cc1)C(=O)NCC(=O)NC (stereo not given),–,> 100 µM (inactive),> 100 µM (inactive),> 100 µM (inactive),> 100 µM (inactive),> 100 µM (inactive),> 100 µM (inactive),> 100 µM (inactive),> 100 µM (inactive),> 100 µM (inactive),> 100 µM (inactive),> 100 µM (inactive),> 100 µM (inactive),> 100 µM (inactive),> 100 µM (inactive),> 100 µM (inactive),–,> 100 µM (inactive),> 100 µM (inactive),> 100 µM (inactive)
C[N+]12C=CC=C1C(N1CCCC1)c1sc(-c3ccc(Cl)cc3)cc12 (stereo not given),8.39 µM (inactive),46 µM (inactive),22.6 µM (inactive),11.6 µM (inactive),33 µM (inactive),15.7 µM (inactive),19.2 µM (inactive),13.7 µM (inactive),17.4 µM (inactive),36.9 µM (inactive),–,18.7 µM (inactive),16.9 µM (inactive),13.6 µM (inactive),17.1 µM (inactive),16.3 µM (inactive),15.5 µM (inactive),17.1 µM (inactive),10.6 µM (inactive),15.1 µM (inactive)
CCOC(=O)NNC(=O)NCCNC(=O)NNC(=O)OCC,> 100 µM (inactive),–,> 100 µM (inactive),> 100 µM (inactive),> 100 µM (inactive),> 100 µM (inactive),69.3 µM (inactive),> 100 µM (inactive),> 100 µM (inactive),> 100 µM (inactive),–,> 100 µM (inactive),–,> 100 µM (inactive),> 100 µM (inactive),> 100 µM (inactive),> 100 µM (inactive),> 100 µM (inactive),> 100 µM (inactive),> 100 µM (inactive)
CC1(C)[C@@H](Cn2cnc3c(N)ncnc32)CC[C@@]1(C)CO,–,81.5 µM (inactive),> 100 µM (inactive),11.9 µM (inactive),81.1 µM (inactive),45.6 µM (inactive),83.4 µM (inactive),> 100 µM (inactive),39.4 µM (inactive),84.5 µM (inactive),> 100 µM (inactive),> 100 µM (inactive),42.7 µM (inactive),73.6 µM (inactive),> 100 µM (inactive),66.2 µM (inactive),67.1 µM (inactive),> 100 µM (inactive),–,32 µM (inactive)
CCn1c(=O)c2c3cc(OC(C)=O)ccc3oc2c2ccc(OC(C)=O)cc21,–,24.8 µM (inactive),21 µM (inactive),36.3 µM (inactive),26.6 µM (inactive),31.1 µM (inactive),–,43.6 µM (inactive),37.3 µM (inactive),36.9 µM (inactive),23.4 µM (inactive),75.9 µM (inactive),38.9 µM (inactive),39.8 µM (inactive),31.9 µM (inactive),33 µM (inactive),55.1 µM (inactive),45.9 µM (inactive),–,21.7 µM (inactive)
